Publication PMC3412733, “Identification and recombinant expression of anandamide hydrolyzing enzyme from Dictyostelium discoideum” (BMC Microbiology, 2012)

Biological target: T1, MBP-FAAH (Dictyostelium FAAH) (Dictyostelium discoideum, UniProt Q8MMR8)
T1 construct: gene DDB_G0275967; full length (637 residues) with N-terminal MBP and 6xHis tags kept, expressed in E. coli BL21(DE3) (pCWMalET), amylose resin purified
T1 sequence (Q8MMR8 1-637): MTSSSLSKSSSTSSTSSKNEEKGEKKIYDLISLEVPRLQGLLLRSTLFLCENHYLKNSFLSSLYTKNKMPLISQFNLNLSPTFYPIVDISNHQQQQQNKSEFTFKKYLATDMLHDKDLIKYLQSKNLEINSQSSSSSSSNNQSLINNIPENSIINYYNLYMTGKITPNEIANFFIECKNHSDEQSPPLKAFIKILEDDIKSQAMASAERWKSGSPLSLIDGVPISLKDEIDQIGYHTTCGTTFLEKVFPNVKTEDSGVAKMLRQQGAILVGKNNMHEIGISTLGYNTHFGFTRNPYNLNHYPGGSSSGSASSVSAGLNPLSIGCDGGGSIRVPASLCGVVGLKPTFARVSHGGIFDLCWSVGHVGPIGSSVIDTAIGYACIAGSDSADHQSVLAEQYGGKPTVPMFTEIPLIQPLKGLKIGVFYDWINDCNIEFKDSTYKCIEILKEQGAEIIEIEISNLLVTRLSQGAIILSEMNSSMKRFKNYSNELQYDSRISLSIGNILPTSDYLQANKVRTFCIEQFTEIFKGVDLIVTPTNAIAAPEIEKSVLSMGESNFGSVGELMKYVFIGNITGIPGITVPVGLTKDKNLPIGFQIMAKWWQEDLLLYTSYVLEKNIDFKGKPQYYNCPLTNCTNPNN
Test: CE-ES-MS of product arachidonic acid
Format: biochemical
Conditions: pH 9.0, 50 mM NaCl, 10% DMSO, 37°C, 30 min

Q: `CCCCC/C=C\C/C=C\C/C=C\C/C=C\CCCC(=O)NCCO` [anandamide] was tested. Which “CE-ES-MS of product arachidonic acid” value did it give?
A: hydrolyzed anandamide to free arachidonic acid and ethanolamine as determined by CE-ES-MS
